The source of these data is publication PMC7583056, “Synthesis, Characterisation and In Vitro Anticancer Activity of Catalytically Active Indole-Based Half-Sandwich Complexes” (Molecules, 2020).

Read-outs that look alike come from different tables or passages of the source.

The test system of one data set is A2780 cells. Put plainly: Chemosensitivity assay (MTT) in A2780 cells. The format is cell-based. The note with it: for IC50: 24 h exposure + 48 h recovery, MTT, mean ± SD, read-out: IC50 A2780. An excerpt:
(§1) The antiproliferative activity of the ind-py ligand and of complexes 1–4 against ovarian cancer A2780 (cisplatin sensitive) and A2780cisR (cisplatin resistant) cell lines was studied. The IC50 values obtained for all the complexes are shown in Table 2, together with values for cisplatin, which was used as a positive control (untreated cells for 100% viability as negative control). […] One of the major limitations of existing anticancer drugs is their poor selectivity towards cancer cells. Comparing the response of the cancer cell lines to the normal PNT2 cells provides a preliminary indication towards the selectivity of the compounds.
(§2) In vitro chemosensitivity tests were performed against A2780, A2780cisR and PNT2 cells. Cells were routinely maintained as monolayer cultures in RPMI medium supplemented with 10% foetal calf serum, penicillin (100 I.U./mL) and streptomycin (100 μg/mL), sodium pyruvate (1 mM) and L-glutamine (2 mM). For chemosensitivity studies, cells were incubated in 96-well plates at a concentration of 7.5 × 10^3 cells per well and the plates were incubated for 24 h at 37 °C and a 5% CO2 humidified atmosphere prior to drug exposure.
(§3) Complexes were dissolved in DMSO to provide stock solutions, which were further diluted with media to provide a range of final concentrations. Drug-media solutions were added to cells (the final concentration of DMSO was less than 1% (v/v) in all cases) and incubated for 24 h at 37 °C and 5% CO2 humidified atmosphere. The drug-media was removed from the wells and the cells were washed with PBS (100 μL, twice), and 100 μL of complete fresh media were added to each well. The plates were further incubated for 48 h at 37 °C in a 5% CO2 humidified atmosphere to allow for a period of recovery. 3-(4,5-dimethylthiazol-2-yl)-2,5-diphenyltetrazolium bromide (MTT) (20 μL, 2.5 mg/mL) was added to each well and incubated for 2 h at 37 °C and 5% CO2 humidified atmosphere. All solutions were then removed and 100 μL of DMSO was added to each well in order to dissolve the purple formazan crystals. A Thermo Scientific Multiskan EX microplate photometer was used to measure the absorbance in each well at 570 nm. Cell survival was determined as the absorbance of treated cells divided by the absorbance of controls and expressed as a percentage. The IC50 values were determined from plots of % survival against drug concentration. Each experiment was repeated in triplicates of triplicates and a mean value was obtained and stated as IC50 (μM) ± SD. Cisplatin was also used as a positive control.

For another data set, the system named is PNT2 cells. Kind of data set: Chemosensitivity assay (MTT) in PNT2 cells. Format: cell-based. The note with it: for IC50: 24 h exposure + 48 h recovery, MTT, mean ± SD.
Text: as §1, §2, §3

In a further data set the test system is A2780cisR cells. Kind of data set: Chemosensitivity assay (MTT) in A2780cisR cells. The format is cell-based. The note with it: for IC50: 24 h exposure + 48 h recovery, MTT, mean ± SD.
Text: as §1, §2, §3

Data set [1] in a line: Stability and aquation in MeOD/D2O by 1H-NMR. The format is physicochemical. The note with it: MeOD/D2O 1:1 v/v, 1.1 mM, 298 K, over 24 h. As for the experimental part:
Owing to the limited aqueous solubility of the complexes, all the reactivity experiments were performed using a mixture MeOD/D2O (1:1 v/v) as a solvent. The stability of complexes 1–4 in MeOD/D2O was studied via ^1H-NMR spectroscopy over a period of 24 h. […] The stability of complexes 1–4 in dimethylsulfoxide (DMSO;1.1 mM) was also studied by ^1H-NMR spectroscopy over a period of 24 h (Figure S1). […] The ligand ind-py is also stable in MeOD/D2O over 24 h (Figure S1E).
Aquation of the monodentate ligand (X) is a common behaviour for half-sandwich complexes of the type [(arene/Cp)M(NUN)X] and it is usually considered an activation step, which allows further reactions with the corresponding targets. To study if aquation of complexes 1–4 occurs in MeOD/D2O (1:1 v/v), experiments in the presence of either one molar equivalent of silver nitrate (to force the release of the monodentate Cl^- ligand), or NaCl (to block hydrolysis), were performed.
Complexes 1–4 were dissolved in MeOD (2.2 mM) and diluted to a final concentration of 1.1 mM with either MeOD or D2O. ^1H-NMR spectra were recorded at t ≤ 10 min, 12 h and 24 h. The samples were then reacted with either 1 mol. equiv. of silver nitrate to obtain the fully hydrolysed species or NaCl to block hydrolysis.

In the case of `N.N.[Cl][Pt][Cl]` [Cisplatin, reference compound], the IC50 was 10.3 ± 0.5 µM in the data set with A2780 cells, 43 ± 3 µM in the data set on PNT2 cells and 22.4 ± 0.5 µM with A2780cisR cells.

In the case of `c1ccc(-c2cc3ccccc3[nH]2)nc1` [Ind-py, 2-(2-pyridinyl)-1H-indole, reference compound], the “Cytotoxicity against A2780 (in words)” value in the data set on A2780 cells (Figure S14) was “non-cytotoxic”. The concentration for half-maximal inhibition (IC50) with A2780 cells (Homo sapiens, A2780) is greater than 100 µM; in the data set with PNT2 cells (Homo sapiens, PNT2), greater than 100 µM; in the data set on A2780cisR cells (Homo sapiens, A2780cisR), greater than 100 µM. Also, the “Cytotoxicity against PNT2 (in words)” value in the data set on PNT2 cells (Figure S14) is on record as “non-cytotoxic”. In the data set on A2780cisR cells (Figure S14), the “Cytotoxicity against A2780cisR (in words)” value was “non-cytotoxic”. In data set [1], the “Stability in MeOD/D2O” value is “stable”.

Broadly, the IC50 is the concentration at which inhibition is half-maximal.
